Here are results for four compounds from ChEMBL document CHEMBL6092207 (J Med Chem, 2024).

Test [1] in a line: Binding affinity to SARS-CoV-2 main protease E166 V mutant expressed in Escherichia coli assessed as dissociation constant using fluorogenic substrate incubated for 90 mins by fluorescence based analysis. Also on record: species or system Severe acute respiratory syndrome coronavirus 2.
Test [2] can be described thus: Binding affinity to SARS-CoV-2 Omicron main protease P132H mutant expressed in Escherichia coli assessed as dissociation constant using fluorogenic substrate incubated for 90 mins by fluorescence based analysis. Also on record: species or system Severe acute respiratory syndrome coronavirus 2.

Molecules are shown by their SMILES.

As a reminder, the Ki is the dissociation constant of the complex between target and ligand, obtained from inhibition or displacement. For the compound `CN1C(=O)C[C@H]2CC3(CC3)CN2C(=O)c2cncc(c2)NCCC/C=C/CNC(=O)[C@H]1Cc1ccc(Cl)cc1Cl`, the results for the Ki in test [1] and in test [2] were 11 nM and under 1 nM, respectively.

For the compound `CN1C(=O)C[C@H]2CC3(CC3)CN2C(=O)c2cncc(c2)NCCCCCCNC(=O)[C@H]1Cc1ccc(Cl)cc1Cl`, the values for the Ki in test [1] and in test [2] were 12 nM and under 1 nM, respectively.

Regarding `CNC[C@@H](Cc1ccc(Cl)cc1)N(C)C(=O)C[C@H]1CCCN1C(=O)c1cncc2ccccc12`, the figures for the Ki in test [1] and in test [2] were 1200 nM and 35 nM, respectively.

`CC(C)(C)[C@H](NC(=O)C(F)(F)F)C(=O)N1C[C@H]2[C@@H]([C@H]1C(=O)N[C@H](C#N)C[C@@H]1CCNC1=O)C2(C)C`: the results for the Ki in test [1] and in test [2] were over 5000 nM and 1 nM, respectively.
